Measured values taken from patent US10329302B2, “Bicyclic-fused heteroaryl or aryl compounds” (Pfizer Inc., priority 2014, dated 2019).

Assays:
[1] = tested on: R848-induced TNFα production by human peripheral blood mononuclear cells (PBMCs); assay: R848 Induced TNFα in Human PBMC Assay; type: cell-based; conditions: Homo sapiens, PBMC, 3 h, read-out: R848-induced TNFa PBMC IC50 (nM)
[2] = target: human IRAK4 FL (Full Length) (Homo sapiens (Human), UniProt Q9NWZ3); assay: IRAK4 Enzymatic DELFIA Assay, Protocol A; type: biochemical; conditions: human IRAK4 FL, 0.6 mM ATP (KM); read-out: IRAK4 DELFIA Protocol A IC50
Chain of human IRAK4 FL (Full Length) (Q9NWZ3 whole entry): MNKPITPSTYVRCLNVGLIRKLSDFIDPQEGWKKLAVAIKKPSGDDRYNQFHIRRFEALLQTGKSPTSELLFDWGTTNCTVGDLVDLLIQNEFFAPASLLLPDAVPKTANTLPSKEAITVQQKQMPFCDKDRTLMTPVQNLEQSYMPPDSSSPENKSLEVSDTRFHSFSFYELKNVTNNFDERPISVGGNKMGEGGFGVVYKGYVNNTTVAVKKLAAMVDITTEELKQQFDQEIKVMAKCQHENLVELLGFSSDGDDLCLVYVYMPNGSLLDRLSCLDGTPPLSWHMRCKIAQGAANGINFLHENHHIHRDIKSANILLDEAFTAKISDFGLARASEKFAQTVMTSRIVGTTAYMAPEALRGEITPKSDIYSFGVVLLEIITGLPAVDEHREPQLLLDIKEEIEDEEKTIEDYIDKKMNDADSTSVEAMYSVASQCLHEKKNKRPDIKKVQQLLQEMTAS

Compound	IC50 [1] [nM]	IC50 [2] [µM]
COc1cc2c(OC[C@H]3NC(=O)[C@@H](F)[C@H]3CF)nccc2cc1C(N)=O [Example 367, 1-{[(2S,3R,4S)-4-fluoro-3-(fluoromethyl)-5-oxopyrrolidin-2-yl]methoxy}-7-methoxyisoquinoline-6-carboxamide]	14	0.0004
CC(C)Oc1cc2c(OC[C@@H]3CCC(=O)N3)nccc2cc1C#N [Example 03, 1-{[(2S)-5-oxopyrrolidin-2-yl]methoxy}-7-(propan-2-yloxy)isoquinoline-6-carbonitrile]	2740	0.575
COc1cc2c(OCC3(C)COC(=O)N3)nccc2cc1C(N)=O (stereo not drawn) [Example 266, 7-methoxy-1-[(4-methyl-2-oxo-1,3-oxazolidin-4-yl)methoxy]isoquinoline-6-carboxamide]	394	0.074
CC(C)Oc1cc2c(OC[C@@H]3CC(C4(O)CCOCC4)C(=O)N3)nccc2cc1C(N)=O (stereo partly drawn) [Example 181, 1-{[(2S)-4-(4-hydroxytetrahydro-2H-pyran-4-yl)-5-oxopyrrolidin-2-yl]methoxy}-7-(propan-2-yloxy)isoquinoline-6-carboxamide]	503	0.0057
COc1cc2c(OC[C@H]3NC(=O)[C@](C)(F)[C@H]3C)nccc2cc1C(N)=O [Example 237, 1-{[(2S,3S,4R)-4-fluoro-3,4-dimethyl-5-oxopyrrolidin-2-yl]methoxy}-7-methoxyisoquinoline-6-carboxamide]	1080	0.295
CC[C@@H]1[C@H](OC)C(=O)N[C@@H]1COc1nccc2cc(C(N)=O)c(OC)cc12 [Example 342, 1-{[(2S,3S,4S)-3-ethyl-4-methoxy-5-oxopyrrolidin-2-yl]methoxy}-7-methoxyisoquinoline-6-carboxamide]	2380	1
CC(C)Oc1cc2c(OC[C@@H]3C[C@@](F)(CO)C(=O)N3)nccc2cc1C(N)=O [Example 164, 1-{[(2S,4R)-4-fluoro-4-(hydroxymethyl)-5-oxopyrrolidin-2-yl]methoxy}-7-(propan-2-yloxy)isoquinoline-6-carboxamide]	116	0.0017
CC(C)Oc1cc2c(OC[C@@H]3C[C@H](CC(F)(F)F)C(=O)N3)nccc2cc1C(N)=O [Example 152, 1-{[(2S,4R)-5-oxo-4-(2,2,2-trifluoroethyl)pyrrolidin-2-yl]methoxy}-7-(propan-2-yloxy)isoquinoline-6-carboxamide]	139	0.0067
C=C=COc1cc2c(OC[C@@H]3CCC(=O)N3)nccc2cc1C(N)=O [Example 319, 1-{[(2S)-5-oxopyrrolidin-2-yl]methoxy}-7-(propadienyloxy)isoquinoline-6-carboxamide]	11000	1.95
CC[C@@H]1CC(=O)N[C@@H]1COc1ncc(F)c2cc(C(N)=O)c(OC)cc12 [Example 362, 1-{[(2S,3R)-3-ethyl-5-oxopyrrolidin-2-yl]methoxy}-4-fluoro-7-methoxyisoquinoline-6-carboxamide]	28	0.0011
CCOc1cc2c(OC[C@H]3NC(=O)[C@@H]4C[C@H]34)nccc2cc1C(N)=O [Example 282, 7-ethoxy-1-{[(1S,2S,5R)-4-oxo-3-azabicyclo[3.1.0]hex-2-yl]methoxy}isoquinoline-6-carboxamide]	191	0.011
COc1cc2c(OC[C@H]3NC(=O)[C@@H](F)[C@H]3CCF)nccc2cc1C(N)=O [Example 370, 1-{[(2S,3S,4S)-4-fluoro-3-(2-fluoroethyl)-5-oxopyrrolidin-2-yl]methoxy}-7-methoxyisoquinoline-6-carboxamide]	3.7	0.0001
CC(C)Oc1cc2c(OC[C@@H]3CCC(=O)N3)ncc(-c3cn(C)cn3)c2cc1C(N)=O [Example 371, 4-(1-methyl-1H-imidazol-4-yl)-1-{[(2S)-5-oxopyrrolidin-2-yl]methoxy}-7-(propan-2-yloxy)isoquinoline-6-carboxamide]	604	0.007
CC[C@@]1(F)C[C@@H](COc2nccc3cc(C(N)=O)c(OC)cc23)NC1=O [Example 256, 1-{[(2S,4R)-4-ethyl-4-fluoro-5-oxopyrrolidin-2-yl]methoxy}-7-methoxyisoquinoline-6-carboxamide]	5620	2
COc1cc2c(OC[C@H]3NC(=O)[C@@H]4[C@@H](F)[C@@H]43)ccnc2cc1C(N)=O [Example 324, 4-{[(1S,2S,5R)-6-fluoro-4-oxo-3-azabicyclo[3.1.0]hex-2-yl]methoxy}-6-methoxyquinoline-7-carboxamide]	277	0.0006
Cc1nc(-c2cnc(OC[C@@H]3CCC(=O)N3)c3cc(OC(C)C)c(C(N)=O)cc23)c[nH]1 [Example 373, 4-(2-methyl-1H-imidazol-4-yl)-1-{[(2S)-5-oxopyrrolidin-2-yl]methoxy}-7-(propan-2-yloxy)isoquinoline-6-carboxamide]	6160	0.035
COc1cc2c(OC[C@H]3NC(=O)[C@@](C)(F)[C@H]3C)nccc2cc1C(N)=O [Example 238, 1-{[(2S,3S,4S)-4-fluoro-3,4-dimethyl-5-oxopyrrolidin-2-yl]methoxy}-7-methoxyisoquinoline-6-carboxamide]	45	0.0037

Compound	IC50 [1] [nM]	IC50 [2] [µM]
CC(C)Oc1cc2c(OC[C@@H]3CCCC(=O)N3)nccc2cc1C(N)=O [Example 06, 1-{[(2S)-6-oxopiperidin-2-yl]methoxy}-7-(propan-2-yloxy)isoquinoline-6-carboxamide]	472	0.051
COc1cc2c(OC[C@H]3NC(=O)[C@H](OC)[C@H]3C)nccc2cc1C(N)=O [Example 350, 7-methoxy-1-{[(2S,3S,4R)-4-methoxy-3-methyl-5-oxopyrrolidin-2-yl]methoxy}isoquinoline-6-carboxamide]	568	0.058
COC[C@H]1[C@@H](COc2nccc3cc(C(N)=O)c(OC)cc23)NC(=O)[C@@H]1F [Example 351, 1-{[(2S,3R,4R)-4-fluoro-3-(methoxymethyl)-5-oxopyrrolidin-2-yl]methoxy}-7-methoxyisoquinoline-6-carboxamide]	213	0.0063
COc1cc2c(OC[C@H]3NC(=O)C(F)[C@H]3C)ccc(F)c2cc1C(N)=O (stereo in doubt) [Example 220, 8-fluoro-5-{[(2S,3S,4S)-4-fluoro-3-methyl-5-oxopyrrolidin-2-yl]methoxy}-3-methoxynaphthalene-2-carboxamide]	14	0.0009
COc1cc2c(OC[C@H]3NC(=O)[C@H]4[C@@H]3[C@@]4(C)F)nccc2cc1C(N)=O [Example 336, 1-{[(1S,2S,5R)-6-fluoro-6-methyl-4-oxo-3-azabicyclo[3.1.0]hex-2-yl]methoxy}-7-methoxyisoquinoline-6-carboxamide]	674	0.0003
COc1cc2c(OC[C@@H]3C[C@H](F)C(=O)N3)nccc2cc1C(N)=O [Example 252, 1-{[(2S,4S)-4-fluoro-5-oxopyrrolidin-2-yl]methoxy}-7-methoxyisoquinoline-6-carboxamide]	40	0.0009
CC(C)Oc1cc2c(OC[C@@H]3C[C@](C)(F)C(=O)N3)nccc2cc1C(N)=O [Example 134, 1-{[(2S,4S)-4-fluoro-4-methyl-5-oxopyrrolidin-2-yl]methoxy}-7-(propan-2-yloxy)isoquinoline-6-carboxamide]	36	0.001
C=C[C@H]1CC(=O)N[C@@H]1COc1nccc2cc(C(N)=O)c(OC)cc12 [Example 329, 1-{[(2S,3R)-3-ethenyl-5-oxopyrrolidin-2-yl]methoxy}-7-methoxyisoquinoline-6-carboxamide]	252	0.013
CC(C)Oc1cc2c(OC[C@@H]3CCC(=O)N3C)nccc2cc1C(N)=O [Example 180, 1-{[(2S)-1-methyl-5-oxopyrrolidin-2-yl]methoxy}-7-(propan-2-yloxy)isoquinoline-6-carboxamide]	2560	1.79
CC(C)Oc1cc2c(OC[C@@H]3C[C@H](C)C(=O)N3)nccc2cc1C(N)=O [Example 125, 1-{[(2S,4S)-4-methyl-5-oxopyrrolidin-2-yl]methoxy}-7-(propan-2-yloxy)isoquinoline-6-carboxamide]	685	0.04
CC(C)Oc1cc2c(OC[C@@H]3C[C@H](F)C(=O)N3)nccc2cc1C(N)=O [Example 145, 1-{[(2S,4S)-4-fluoro-5-oxopyrrolidin-2-yl]methoxy}-7-(propan-2-yloxy)isoquinoline-6-carboxamide]	41	0.0004
CC(C)Oc1cc2c(OC[C@@H]3C[C@](F)(CO)C(=O)N3)nccc2cc1C(N)=O [Example 163, 1-{[(2S,4S)-4-fluoro-4-(hydroxymethyl)-5-oxopyrrolidin-2-yl]methoxy}-7-(propan-2-yloxy)isoquinoline-6-carboxamide]	7450	1.4
COc1cc2c(OC[C@@H]3CCC(=O)N3)cncc2cc1C(N)=O [Example 206, 6-methoxy-4-{[(2S)-5-oxopyrrolidin-2-yl]methoxy}isoquinoline-7-carboxamide]	4570	0.216
CC[C@@H]1[C@H](F)C(=O)N[C@@H]1COc1ncnc2cc(C(N)=O)c(OC)cc12 [Example 341, 4-{[(2S,3S,4S)-3-ethyl-4-fluoro-5-oxopyrrolidin-2-yl]methoxy}-6-methoxyquinazoline-7-carboxamide]	16	0.0003
C#CCOc1cc2c(OC[C@@H]3CCC(=O)N3)nccc2cc1C(N)=O [Example 318, 1-{[(2S)-5-oxopyrrolidin-2-yl]methoxy}-7-(prop-2-yn-1-yloxy)isoquinoline-6-carboxamide]	17200	1.94
C=C[C@@H]1CC(=O)N[C@@H]1COc1nccc2cc(C(N)=O)c(OC)cc12 [Example 251, 1-{[(2S,3S)-3-ethenyl-5-oxopyrrolidin-2-yl]methoxy}-7-methoxyisoquinoline-6-carboxamide]	72	0.0034
